Experimental data: US20090264473A1, “Novel Crystalline Forms of Antidiabetic Compounds” (priority 2006, published 2009)
Structures can show the parent of a compound that is named as a salt.

Key:
[1] = hygroscopicity (weight gain in humid environment); assay type: physicochemical
[2] = water solubility; assay type: physicochemical
[3] = stability of crystal form; assay type: physicochemical
[4] = bioavailability in laboratory studies in dogs; assay type: in vivo
[5] = bioavailability in laboratory studies in rats; assay type: in vivo
[6] = bioavailability in animals; assay type: in vivo
[7] = chemical stability; assay type: physicochemical

weight gain when placed in humid environment ([1]; environment with up to 95% RH)	water solubility ([2]; native pH)	water solubility ([2]; neutral pH)	bioavailability [4]	bioavailability [5]	bioavailability [6]	hygroscopicity [1]	chemical stability [7]	chemical stability on storage ([7]; 8 months at 40° C. and 75% RH)	Structure (SMILES)	stability with respect to retaining crystal form [3]
about 0.2 wt %	very low water solubility	low water solubility	good bioavailability	good bioavailability	good bioavailability	–	–	–	CCCc1nc(Oc2ccc(Cl)cc2)ccc1-c1noc2cc(Cl)c(O[C@@H](C)C(=O)O)cc12 [Crystalline Free Acid Anhydrate, (2S)-2-({6-chloro-3-[6-(4-chlorophenoxy)-2-propylpyridin-3-yl]-1,2-benzisoxazol-5-yl}oxy)propanoic acid]	stable with respect to retaining their crystal form
–	–	–	–	–	–	non-hygroscopic	chemically stable	remaining unchanged	CCCc1nc(Oc2ccc(Cl)cc2)ccc1-c1noc2cc(Cl)c(O[C@@H](C)C(=O)O)cc12 [benzenesulfonate salt]	–
